# In article PMC9009886, “In vitro and in vivo Anti-leishmanial Potential of [Ag (PTA) 4 ]BF 4 and [Ag(HBPz 3 )(PPh 3 )] Silver Complexes” (Revista da Sociedade Brasileira de Medicina Tropical, 2022):
# Read-outs that look alike come from different tables or passages of the source.
# Columns and labels:
# [1] = test system: amastigote of L. (L.) amazonensis; design: method as in doi:10.1016/j.poly.2014.05.004; conditions: cited from earlier work
# [2] = test system: lesions caused by L. (L.) amazonensis; test: Topical treatment of lesions in hamsters infected with L. (L.) amazonensis; type: in vivo, Mesocricetus auratus; conditions: for Infected cells / internalized amastigotes in lesion fragments: after 30 days of treatment; for Lesion volume (in words): gel topically 0.3 mg/day once a day, Glucantime IM 3 mg (Sb5)/kg/day, 30 days, Ag2 effect after the 14th day
# Procedure: (§1) To prepare the Carbopol®-based gel, Nipagin® was mixed with distilled water until its total solubilization, and then Carpobol® was added. Then, the metal complex was added and incorporated separately in each gel, and triethonolamine was added gradually until a thick gel was obtained. Finally, the metal complexes were mixed at a concentration of 3 mg/L, a value defined for comparative purposes with the positive control of the study (Glucantime®) administered at the same concentration via the intramuscular (IM) route.
# (§2) For the assays, 72 adult male aged 60-days golden hamsters (Mesocricetus auratus) that were free of pathogens and had been previously obtained from the Central Vivarium at the INPA (CEUA 060/2018) were used [Appendix C]. The animals were housed in stainless steel cages in air-conditioned rooms, with controlled light, temperature (22-25 °C), humidity (50-60%), and food and water ad libitum.
# (§3) Animals were separated into six groups. Five groups were infected with 100 µL of a solution containing 10[6] promastigote/mL of Leishmania spp. The first experiment involved 36 animals infected with L. (L.) amazonensis, and the second experiment involved 36 animals infected with L. (V.) guyanensis. Animals were divided into the following groups:
# • Group I: Uninfected control • Group II: Untreated, infected control • Group III: Infected and treated with Glucantime® (IM) • Group IV: Infected and treated with Ag1 (lesions treated topically once a day) • Group V: Infected and treated with Ag2 (lesions treated topically once a day) • Group VI: Infected and treated with gel without the addition of complexes (lesions treated topically once a day)
# To evaluate the course of infection, the total volume of the lesion (length, width, and height) was measured using a caliper (Zaas® Precision). Animals were weighed once per week. After 30 days of treatment, the animals were euthanized using ketamine hydrochloride (Dopalen®) combined with xylazine hydrochloride (Anasedan®) following the Animal Use Ethics Commission (CEUA) protocols (060/2018).
# (§4) For parasitological studies, a sample of the tissue from the lesion region lesion in each animal was sectioned, and the fragment was printed on a glass slide and stained using the Panoptic kit (Laborclin®). The slides were evaluated using optical microscopy, 30 fields were counted, and the analysis and quantification of infected and uninfected cells and the quantity of internalized amastigote forms were performed. Fragments of each animal’s skin lesions and liver were also sectioned and cultured in an NNN medium for 7 days. After this period, an aliquot containing the fragments was evaluated using optical microscopy for parasitological analysis.
# For the in vivo results, we used two-way analysis of variance to evaluate the statistical significance between the groups, followed by the Tukey test to compare the means of the groups at a 95% confidence interval.
# [3] = test system: mammalian TrxR; design: method as in PMID 33238608; conditions: purified enzyme and cell extracts; cited from earlier work
# [4] = test system: murine peritoneal macrophages; test: Cytotoxicity (MTT) in murine peritoneal macrophages; type: cell-based, Balb/c (Mus musculus) mice; conditions: for CC50: peritoneal macrophages, MTT
# Procedure: Peritoneal macrophages were extracted from Balb/c (Mus musculus) mice, from colonies of the Central Vivarium at the INPA, with the approval of the Ethics Committee on the Use of Animals (CEUA - INPA 023/2020; Appendix A). The animals were anesthetized with ketamine hydrochloride (Dopalen®), and a ventral incision was made. The RPMI medium was introduced; and the abdominal massage was performed for macrophage activation, followed by aspiration, and centrifuged at 1,500 g for 10 min. Cell concentration was adjusted to 10[4] macrophages/mL[6].
# (§5) The assay was performed in 96-well plates (KASVI®). The RPMI medium was added to the cells at a concentration of 10[4] cells/mL/well. The metal complexes were added at concentrations of […] in triplicate as […], and Glucantime® was used at the same concentration as the metal complexes. The negative controls used DMSO at 4 concentrations (2%, 1%, 0.50%, and 0.25%), and the RMPI medium containing the cells remained exposed to the substance for up to 24, 48, and 72 h.
# (§6) After each period, a solution of [3-(4,5-dimethylthiazol-2yl) -2,5-diphenyltetrazolium] bromide (MTT) was added to the wells at (concentration of 0.5 mg/mL). The plates were incubated for 4 h at 37 °C and then subjected to spectrophotometry (Biotek®) at an absorbance of 590 nm. Three independent trials were performed with peritoneal macrophages and human monocytes.
# [5] = test system: human monocytes; test: Cytotoxicity (MTT) in human monocytes; type: cell-based; conditions: for CC50: MTT
# Procedure: Human monocytes were obtained after approval from the Research Ethics Committee (CEP-UFAM: 29406319.2.0000.5020) (Appendix B). Blood samples were collected from all patients. Phosphate-buffered saline (PBS) 1 x was added, and the blood/PBS was added gently on Ficoll-Histopaque (Sigma-Aldrich®) [density of 1077] and centrifuged for 30 min/200 g[7]. Peripheral blood mononuclear cells were collected, added PBS 1 x, and centrifuged for 3 min at 400 × g. The cell concentration was adjusted to 10[4] monocytes/mL[7].
# as §5, §6
# [6] = test system: large panel of cancer cell lines; design: method as in PMID 33238608; conditions: cited from earlier work
# [7] = test system: amastigote forms of L. (V.) guyanensis in human monocytes; test: Assay with amastigote forms of L. (V.) guyanensis in human monocytes; type: cell-based, Leishmania (Viannia) guyanensis
# Procedure: (§7) The assay against amastigote forms was performed using murine peritoneal macrophages and human monocytes, obtained as described for the cytotoxicity assay. The cells were incubated for 48 h in a 24 well-plate containing glass coverslips with the RPMI medium, and cell volume adjusted to 10[5] macrophages/monocyte/mL.
# (§8) The adhered cells were infected with promastigote forms of Leishmania spp. and left for 2 h. The test substances were then added at the concentrations used in previous trials and exposed for 24, 48, and 72 h. Coverslips were stained using a Panoptic kit (Laborclin® - Laborclin Products for Laboratories Ltd, Pinhais, Brazil) and quantified using optical microscopy at 400 × magnification. A total of 100 cells were quantified to evaluate the number of infected and uninfected macrophages and internalized amastigotes. Three independent assays were performed on peritoneal macrophages and human monocytes.
# (§9) Statistical analysis was performed using linear regression to calculate IC50 using GraphPad Prism® (GraphPad Software Inc. version 6.0, for Windows). Results are expressed as mean ± standard deviation.
# [8] = test system: promastigote forms of Leishmania (Viannia) guyanensis (M4147); test: Assay with promastigote forms, L. (V.) guyanensis; type: cell-based
# Procedure: (§10) We used the species L. (Leishmania) amazonensis [L. (L.) amazonensis] (MHOM/BR/2009/IM5584) and L. (Viannia) guyanensis [L. (V.) guyanensis] (MHOM/BR/1975/M4147), which had been cultivated in the biphasic medium Novy - MacNeal - Nicolle (NNN) and amplified in the RPMI liquid medium (Himedia®). The culture was centrifuged for 15 min at 4,400 g. Parasites were adjusted to a concentration of 10[4] parasites/mL.
# (§11) The parasites were used at a concentration of 10[4] parasites/mL. The assay was performed in 96-well plates (KASVI®), and then the same procedure and concentrations of the substances were used in the cytotoxicity assay, with negative control and culture medium containing parasites. The activity of the complexes was evaluated at 24, 48, and 72 h intervals using a Neubauer chamber. In addition, cellular viability was evaluated using the assay. Three independent tests were conducted.
# as §9
# [9] = test system: amastigote forms of L. (V.) guyanensis in murine peritoneal macrophages; test: Assay with amastigote forms of L. (V.) guyanensis in peritoneal macrophages; type: cell-based, Leishmania (Viannia) guyanensis
# Procedure: as §7, §8
# (§12) The SI is the relationship between the cytotoxic activity of the tested compound and its anti-leishmanial activity. In our study, the SI was calculated from the ratio of cytotoxicity for macrophages/monocytes with a cytotoxic concentration at 50% (CC50) and action against amastigote forms in each of these cell types with an inhibitory concentration at 50% (IC50), using the equation: SI = CC50IC50-AMA^3
# as §9
# [10] = test system: amastigote forms of L. (L.) amazonensis in human monocytes; test: Assay with amastigote forms of L. (L.) amazonensis in human monocytes; type: cell-based, Leishmania (Leishmania) amazonensis
# Procedure: as §7, §8, §9
# [11] = test system: lesions caused by L. (V.) guyanensis; test: Topical treatment of lesions in hamsters infected with L. (V.) guyanensis; type: in vivo, Mesocricetus auratus
# Procedure: as §1, §2
# as §3, with “groups: […]” for “groups:”
# To evaluate the course of infection, the total volume of the lesion (length, width, and height) was measured using a caliper (Zaas® Precision). […]
# as §4, with “Fragments of each animal’s skin lesions and liver were also sectioned and cultured in an NNN medium for 7 days.” left out, “analysis. […]” for “analysis.”
# [12] = test system: amastigote forms of L. (L.) amazonensis internalized in murine peritoneal macrophages; test: Assay with amastigote forms of L. (L.) amazonensis in peritoneal macrophages; type: cell-based, Leishmania (Leishmania) amazonensis
# Procedure: as §7, §8, §12, §9
# [13] = test system: promastigote forms of Leishmania (Leishmania) amazonensis (IM5584); test: Assay with promastigote forms, L. (L.) amazonensis; type: cell-based
# Procedure: as §10, §11, §9
# [14] = L. (L.) amazonensis (IM5584), 24 h, read-out: IC50 values, promastigote forms
# [15] = L. (L.) amazonensis (IM5584), 48 h, read-out: IC50 values, promastigote forms
# [16] = L. (L.) amazonensis (IM5584), 72 h, read-out: IC50 values, promastigote forms
Compound,Infected cells / internalized amastigotes in lesion fragments [2],Lesion volume (in words) [2],IC50 ([7]; 24 h),IC50 ([7]; 48 h),IC50 ([7]; 72 h),IC50 ([8]; 24 h),IC50 ([8]; 48 h),IC50 ([8]; 72 h),IC50 ([9]; 24 h),IC50 ([9]; 48 h),IC50 ([9]; 72 h),IC50 ([10]; 24 h),IC50 ([10]; 48 h),IC50 ([10]; 72 h),IC50 ([12]; 24 h),IC50 ([12]; 48 h),IC50 ([12]; 72 h),"IC50 [13, 14]","IC50 [13, 15]","IC50 [13, 16]",further results
"C[C@@H]1[C@H](O)[C@@H](C)/C=C/C=C/C=C/C=C/C=C/C=C/C=C/[C@H](O[C@@H]2O[C@H](C)[C@@H](O)[C@H](N)[C@@H]2O)C[C@@H]2O[C@](O)(C[C@@H](O)C[C@@H](O)[C@H](O)CC[C@@H](O)C[C@@H](O)CC(=O)O[C@H]1C)C[C@H](O)[C@H]2C(=O)O [amphotericin B®, amphotericin B]",–,–,–,–,–,–,–,–,–,–,–,–,–,–,–,–,–,–,–,–,IC50 amastigote [1]: 1.20 µg/mL
"[Ag+].c1ccc(P(c2ccccc2)c2ccccc2)cc1.c1cnn([BH-](n2cccn2)n2cccn2)c1 [Ag2, [Ag(HBPz3)(PPh3)]]",statistically significant difference compared to the group without treatment,reduction in lesion volume,–,–,–,–,–,–,–,–,–,–,–,–,–,–,–,–,–,–,"Mean difference in lesion volume versus Glucantime ([2]; after the 14th day of treatment, no statistical difference): 4.38; TrxR inhibition (in words) [3]: very strong inhibitor; Cytotoxicity (in words) ([4]; murine peritoneal macrophages): did not show cytotoxic activity; Cytotoxicity (in words) ([5]; human monocytes): did not show cytotoxic activity; Cytotoxic activity toward cancer cell lines (in words) [6]: remarkable cytotoxic activity"
"meglumine antimoniate [Glucantime®, reference compound]",–,reduction in lesion volume,374.7 ± 0.64 µM,372.6 ± 1.75 µM,427.8 ± 1.32 µM,286.6 ± 1.28 µM,376.5 ± 2.74 µM,453.7 ± 3.18 µM,48.2 ± 0.77 µM,70.2 ± 1.62 µM,101 ± 1.02 µM,294.6 ± 0.38 µM,317.2 ± 1.75 µM,391 ± 1.38 µM,57.1 ± 0.77 µM,279.2 ± 1.95 µM,318.7 ± 1.48 µM,292.1 ± 2.4 µM,343.1 ± 2.37 µM,435.6 ± 3.03 µM,"Viable parasites in cultures of lesion fragments (NNN medium) [2]: Viable parasites were observed; Clinical cure ([2]; 30 days of treatment): no clinical cure was obtained; Viable parasites in cultures of lesion fragments (NNN medium) [11]: presence of viable parasites; CC50 ([4]; 24 h): 179 ± 0.23 µM; CC50 ([4]; 48 h): 205.2 ± 1.25 µM; CC50 ([4]; 72 h): 212 ± 2.48 µM; CC50 ([5]; human monocytes, 24 h): 149 ± 1.52 µM; CC50 ([5]; human monocytes, 48 h): 255 ± 2.74 µM; CC50 ([5]; human monocytes, 72 h): 398.4 ± 1.18 µM"
"C1N2CN3CN1CP(C2)C3.C1N2CN3CN1CP(C2)C3.C1N2CN3CN1CP(C2)C3.C1N2CN3CN1CP(C2)C3.F[B-](F)(F)F.[Ag+] [Ag1, [Ag (PTA)4]BF4]",greater number of internalized amastigotes,evolution of lesions,109.2 ± 0.63 µM,186.6 ± 0.57 µM,270.3 ± 0.25 µM,75.14 ± 0.53 µM,130 ± 2.94 µM,228.9 ± 1.26 µM,90.51 ± 0.7 µM,105.1 ± 0.42 µM,116 ± 1.58 µM,23.3 ± 1.04 µM,69.04 ± 0.34 µM,150.7 ± 0.91 µM,6.09 ± 0.47 µM,14.9 ± 0.41 µM,23.8 ± 1.51 µM,< 10 µM,69.2 ± 3.03 µM,104 ± 1.47 µM,"Number of amastigotes internalized in lesion ([11]; compared to the treated groups): highest number; Number of infected cells in lesion fragments ([11]; statistical difference compared to Glucantime): largest number of infected cells; Cytotoxicity (in words) [4]: toxic; IC50 ([13]; L. (L.) amazonensis, read-out: Activity class according to IC50, promastigotes): < 10 µM; Cytotoxicity (in words) [5]: toxic"
